This note sets out measurements from ChEMBL document CHEMBL6087470, “Design of Small Non-Peptidic Ligands That Alter Heteromerization between Cannabinoid CB1 and Serotonin 5HT2A Receptors” (J Med Chem, 2025).

Activity calls are given as the source filed them. The calls are words filed in the database; no cut-off is given here.

One assay deals with HEK293T. The assay is described as follows: Disruption of human CB1R-nYFP-5HT2AR-cYFP heterodimerization co-transfected in HEK293T cells assessed as decrease in fluorescence signal at 4 uM incubated for 4 hrs by BiFC assay. It counts as cell-based.
The target in assay [1] is Cannabinoid receptor 1 (Homo sapiens) (UniProt P21554). The assay is described as follows: Binding affinity to human CB1R-nYFP-CB1R-cYFP homodimerization co-transfected in HEK293T cells at 4 uM incubated for 4 hrs by BiFC assay. It counts as cell-based.
Chain of Cannabinoid receptor 1 (Homo sapiens) (P21554 whole entry): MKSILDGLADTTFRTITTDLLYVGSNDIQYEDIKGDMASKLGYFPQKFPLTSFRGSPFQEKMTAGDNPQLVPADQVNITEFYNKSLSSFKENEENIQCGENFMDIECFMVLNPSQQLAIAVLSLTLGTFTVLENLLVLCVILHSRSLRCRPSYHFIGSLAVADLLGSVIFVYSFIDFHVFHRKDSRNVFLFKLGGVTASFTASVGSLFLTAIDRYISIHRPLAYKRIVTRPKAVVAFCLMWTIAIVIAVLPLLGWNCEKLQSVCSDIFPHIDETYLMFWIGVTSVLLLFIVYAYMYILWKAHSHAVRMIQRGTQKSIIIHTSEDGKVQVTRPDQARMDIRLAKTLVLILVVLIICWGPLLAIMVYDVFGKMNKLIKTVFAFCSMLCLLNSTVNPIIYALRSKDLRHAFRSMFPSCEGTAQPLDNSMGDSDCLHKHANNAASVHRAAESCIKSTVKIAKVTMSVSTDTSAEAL
Assay [2] deals with 5-hydroxytryptamine receptor 2A (Homo sapiens) (UniProt P28223). The assay is described as follows: Binding affinity to human 5HT2AR-nYFP-5HT2AR-cYFP homodimerization co-transfected in HEK293T cells at 4 uM incubated for 4 hrs by BiFC assay. It counts as cell-based.
Chain of 5-hydroxytryptamine receptor 2A (Homo sapiens) (P28223 whole entry): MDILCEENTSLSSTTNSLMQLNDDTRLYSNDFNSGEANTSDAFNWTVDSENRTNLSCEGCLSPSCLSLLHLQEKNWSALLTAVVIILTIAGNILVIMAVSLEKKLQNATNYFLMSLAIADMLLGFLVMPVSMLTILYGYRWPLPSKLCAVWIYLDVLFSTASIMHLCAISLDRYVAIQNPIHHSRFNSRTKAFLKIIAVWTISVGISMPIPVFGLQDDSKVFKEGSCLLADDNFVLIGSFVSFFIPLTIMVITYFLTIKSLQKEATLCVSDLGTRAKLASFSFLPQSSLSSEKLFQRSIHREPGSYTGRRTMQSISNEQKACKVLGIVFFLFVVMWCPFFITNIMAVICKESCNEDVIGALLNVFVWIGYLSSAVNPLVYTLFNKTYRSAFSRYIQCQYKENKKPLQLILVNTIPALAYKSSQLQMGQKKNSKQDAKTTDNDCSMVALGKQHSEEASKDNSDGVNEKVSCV
Assay [3] concerns HEK-293T. The assay is described as follows: Effect on G-protein coupling of 5HT2AR in forskolin-treated HEK293T cells transfected with CB1R-nYFP-5HT2AR-cYFP pretreated with WIN by cAMP based HTRF assay. The class given is functional, cell-based. The note with it: Homo sapiens. For orientation: Time-resolved FRET reads energy transfer from a long-lived donor to a nearby acceptor.

The test system of assay [4] is HEK-293T. The assay is described as follows: Effect on G-protein coupling of 5HT2AR in forskolin-treated HEK293T cells transfected with CB1R-nYFP-5HT2AR-cYFP pretreated with DOI by cAMP based HTRF assay. It counts as functional, cell-based. The note with it: Homo sapiens.
The test system of assay [5] is HEK-293T. The assay is described as follows: Effect on ERK1/2 phosphorylation in forskolin-treated HEK293T cells transfected with CB1R-nYFP-5HT2AR-cYFP pretreated with DOI by cAMP based HTRF assay. The class given is functional, cell-based. The note with it: Homo sapiens.
Assay [6] concerns HEK-293T. The assay can be described thus: Effect on G-protein coupling of 5HT2AR in forskolin-treated HEK293T cells transfected with CB1R-nYFP-5HT2AR-cYFP assessed as decrease in cAMP level pretreated with DOI/WIN by HTRF assay. It counts as functional, cell-based. The note with it: Homo sapiens.
Assay [7] has as its system HEK-293T. The assay can be described thus: Upregulation of ERK1/2 phosphorylation in forskolin-treated HEK293T cells transfected with CB1R-nYFP-5HT2AR-cYFP pretreated with DOI/WIN by cAMP based HTRF assay. It counts as functional, cell-based. The note with it: Homo sapiens.
In assay [8] the test system is HEK-293T. The assay is described as follows: Effect on G-protein coupling of 5HT2AR in forskolin-treated HEK293T cells transfected with CB1R-nYFP-5HT2AR-cYFP assessed as decrease in cAMP level pretreated with WIN/MDL by HTRF assay. The note with it: Homo sapiens. The class given is functional, cell-based. A general note: cAMP levels reflect the balance of adenylyl cyclase and phosphodiesterase activity.

The subject of assay [9] is HEK-293T. The assay is described as follows: Upregulation of ERK1/2 phosphorylation in forskolin-treated HEK293T cells transfected with CB1R-nYFP-5HT2AR-cYFP pretreated with WIN/MDL by cAMP based HTRF assay. It counts as functional, cell-based. The following applies: Homo sapiens.
In assay [10] the test system is HEK-293T. The assay can be described thus: Effect on G-protein coupling of 5HT2AR in forskolin-treated HEK293T cells transfected with CB1R-nYFP-5HT2AR-cYFP assessed as decrease in cAMP level pretreated with DOI/RIM by HTRF assay. It counts as functional, cell-based. The note with it: Homo sapiens.
The subject of assay [11] is HEK-293T. The assay is described as follows: Upregulation of ERK1/2 phosphorylation in forskolin-treated HEK293T cells transfected with CB1R-nYFP-5HT2AR-cYFP pretreated with DOI/RIM by cAMP based HTRF assay. The class given is functional, cell-based. The note with it: Homo sapiens.

With `CC(C)COc1nc(-c2ccccc2)cc(-c2ccccc2)c1C#N`, the result in the assay with HEK293T was Active.

Take `CC(C)CNC(=O)c1oc2ccccc2c1COc1ccccc1`: the outcome (with HEK293T; in [2]; in the assay on HEK-293T [6]; in the assay on HEK-293T [7]; with HEK-293T [8]; in the assay on HEK-293T [9]) was Active. Further, the result in the assay on HEK-293T [10] and in the assay with HEK-293T [11] was Active. In assay [1], the outcome was inactive. The Activity entry with HEK-293T [3], in the assay with HEK-293T [4] and in the assay with HEK-293T [5] was “No effect” each time.

In the case of `C=CCNC(=O)c1cn(-c2ccccc2)nc1-c1cccs1`, the result in assay [1] was Active. The outcome in [2] was inactive.

Regarding `CC(C)NC(=O)Cn1ccc2ccc(OCc3ccccc3)cc21`, the result (with HEK293T; in [2]; in the assay with HEK-293T [6]; in the assay on HEK-293T [7]; with HEK-293T [8]; in the assay on HEK-293T [9]) was Active. Further, the outcome in the assay with HEK-293T [10] and in the assay with HEK-293T [11] was Active. Moreover, the outcome in assay [1] was inactive. Further, the Activity result in the assay with HEK-293T [3], in the assay on HEK-293T [4] and in the assay with HEK-293T [5] was “No effect” each time.

On to `CCC(CC)C(=O)N(Cc1ccccc1)Cc1ccccc1`, for which the outcome (in the assay with HEK293T; in [2]; in the assay on HEK-293T [6]; in the assay on HEK-293T [7]; in the assay with HEK-293T [8]; in the assay on HEK-293T [9]) was Active. The outcome in the assay with HEK-293T [10] and in the assay with HEK-293T [11] was Active. Further, the outcome in [1] was inactive. In addition, the Activity entry in the assay on HEK-293T [3], in the assay with HEK-293T [4] and in the assay with HEK-293T [5] was “No effect” in each case.

Regarding `CC(C)COCC(NC(=O)c1cccnc1)c1ccco1` (stereo not given), the outcome with HEK293T was Active.
